Molecules are shown by their SMILES.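 Protocol summary: plate cells (96-well), add compound at 5 concentrations, incubate 48 h, interpolate endpoints linearly. Abbreviation: GI50, concentration required for 50% inhibition of growth.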 Active and inactive are the calls of the source. Rule as the data show it: active = GI50 up to about 1.1 µM and inactive = higher. Some results are limits rather than exact numbers.

The source of these data is ChEMBL document CHEMBL1201862, “PubChem BioAssay data set” (2004).

One assay deals with NCI/ADR-RES. Description: growth of human tumour cells (NCI), 48 h.
The test system of a further assay is T47D. Kind of assay: growth of human tumour cells (NCI), 48 h.

As for `COC1=CC23CCCN2CCc2cc4c(cc2C3C1O)OCO4` (configuration not stated), the values for the GI50 in the assay on NCI/ADR-RES and in the assay with T47D were > 100 µM (inactive) and 92.5 µM (inactive), respectively.
The corresponding values for `CN(C)CCNc1ccc2c(=O)n(CCN(C)C)c(=O)n3c4ccc(O)cc4c(=O)c1c23` are 0.546 µM (active) and < 0.0165 µM (active).
On the same counts, the results for `CCN(CC)CCCn1c(=O)c2ccccc2n2c3c(=O)n(C)c(=O)n(C)c3nc12` are 13.2 µM (inactive) and 17.1 µM (inactive).
Regarding `Cc1c(C)c(C)c(-n2c(=O)n(C)c(=O)n2C(C)(C)C)c(C)c1C`, the GI50 with T47D is > 100 µM (inactive).
Turning to `COc1cc2c(OC)c(c1)CCCC1=CC(=O)C=C(CCC2)C1=O`, the GI50 in the assay with NCI/ADR-RES is 32 µM (inactive); in the assay on T47D it was 23.2 µM (inactive).
For the compound `Cc1cccc2nc3cccc(C(=O)NCCC[N+](C)(CCCNC(=O)c4cccc5nc6cccc(C)c6nc45)Cc4c([N+](=O)[O-])ncn4C)c3nc12`, the GI50 with NCI/ADR-RES was 38.6 µM (inactive); in the assay with T47D, 21.9 µM (inactive).
On to `COc1cc(OCc2ccc3nc(OC)c(OC)nc3c2)cc(OC)c1OC`, for which the GI50 in the assay on NCI/ADR-RES and in the assay with T47D was > 10 µM (inactive) throughout.
In the case of `C#C[C@@]1(O)CCCC2=CC3(CC[C@]21C)SCCS3`, the GI50 with NCI/ADR-RES and with T47D was > 100 µM (inactive) in each case.
For `O=C1C2CC=CCC2C(=O)N1n1c(-c2ccccc2)n[nH]c1=O` (configuration not stated), the GI50 with NCI/ADR-RES and in the assay on T47D was > 100 µM (inactive) in each case.
As to `O=[N+]([O-])c1ccc(N2CCC(CCCC3CCN(c4ccc([N+](=O)[O-])cc4[N+](=O)[O-])CC3)CC2)c([N+](=O)[O-])c1`, the values for the GI50 in the assay on NCI/ADR-RES and in the assay on T47D were 20.7 µM (inactive) and 5.64 µM (inactive), respectively.
On the same counts, the results for `CC(CCCC1SCC2NC(=O)NC21)C(=O)O` (configuration not stated) are > 100 µM (inactive) and > 100 µM (inactive).
For `CCOC(=O)Nc1nn[nH]c1Cl`, the GI50 with NCI/ADR-RES and in the assay on T47D was > 100 µM (inactive) in each case.
For the compound `CCOC(=O)/C=C(/C(=O)OCC)n1ccc(=O)n(Cc2cn(CCCCOC(C)=O)nn2)c1=O`, the GI50 in the assay with NCI/ADR-RES and in the assay on T47D was > 100 µM (inactive) each time.
As to `CC(CO)(CO)N1C(=O)C2C3c4ccccc4C(c4ccccc43)C2C1=O` (configuration not stated), the GI50 in the assay with NCI/ADR-RES and in the assay with T47D was > 100 µM (inactive) each time.
Take `Cc1ccccc1NC(=O)C(=O)Cc1cnc2ccccc2n1`: the GI50 in the assay on NCI/ADR-RES and with T47D was > 100 µM (inactive) in each case.
Turning to `C[C@]12CCC(=O)C=C1CC[C@@H]1C2CC[C@]2(C)c3nn(-c4ccc(F)cc4)nc3CC12` (some centres not stated), in the assay with T47D, the GI50 was > 100 µM (inactive).
`CCN(CC)CCCC(C)NC(=O)c1cc(-c2nccn2C)nc2ccc(C)cc12` (configuration not stated): the GI50 in the assay on NCI/ADR-RES and in the assay on T47D was > 100 µM (inactive) each time.
As to `OCCN=C1c2ccccc2C2C(c3ccccc31)C1c3ccccc3C(=NCCO)c3ccccc3C21` (configuration not stated), the GI50 in the assay on NCI/ADR-RES was 22.2 µM (inactive); in the assay with T47D, 21.6 µM (inactive).
On the same counts, the results for `CCCC(=O)Nc1cc(C(=O)N2C[C@@H]3C[C@]34C2=CC(=O)c2[nH]cc(C)c24)n(COC)c1` are 13.9 µM (inactive) and 2.78 µM (inactive).
`N#CC(C#N)=C1SC(=N\c2ccccc2)/C(=N/c2ccccc2)N1c1ccccc1`: the GI50 was 26.4 µM (inactive) in the assay on NCI/ADR-RES and 5.38 µM (inactive) with T47D.
Consider `CCOC(=O)NC(Nc1cccc(F)c1)(C(F)(F)F)C(F)(F)F`, for which the GI50 in the assay with NCI/ADR-RES and with T47D was > 100 µM (inactive) throughout.
`CO/C=C(/C(=O)OC)c1ccccc1COc1cccc(C(F)(F)F)c1`: the figures for the GI50 in the assay on NCI/ADR-RES and in the assay on T47D were 5.31 µM (inactive) and 15 µM (inactive), respectively.
On to `Cc1ccc2ccc(O)cc2c1`, for which the GI50 is 24.8 µM (inactive) in the assay with NCI/ADR-RES and 35.3 µM (inactive) in the assay on T47D.
On the same counts, the results for `N#Cc1c(-c2ccc(Cl)cc2Cl)nc2[nH]nc(S)n2c1=O` are > 100 µM (inactive) and > 100 µM (inactive).
Regarding `COc1ccc(-n2c3c(c4cc(O)ccc42)Cc2ccccc2C3=O)cc1`, the GI50 in the assay with NCI/ADR-RES is 73.8 µM (inactive).
`CCN(CC)C(=S)/N=C(\SC(=S)N(CC)CC)c1ccccc1`: the GI50 in the assay on NCI/ADR-RES was 35.5 µM (inactive); in the assay on T47D, 25.2 µM (inactive).
Turning to `Cc1c2cnccc2nc2[nH]c3ccncc3c12`, the GI50 in the assay on T47D is 12.4 µM (inactive).
In the case of `COC(=O)c1c(O)ccc2c1c1c(n2Cc2ccccc2OC)C(=O)c2ccccc2C1=O`, the GI50 is 6.95 µM (inactive) with NCI/ADR-RES and 2.36 µM (inactive) with T47D.
Turning to `O=c1[nH]c2cc3cccnc3c(Cl)c2nc1CBr`, the GI50 was 20 µM (inactive) in the assay with NCI/ADR-RES and 5.89 µM (inactive) with T47D.
As to `Cc1cc2c(c(C(=O)NCC(=O)O)c1)Oc1c(cc(C)cc1C(=O)NCC(=O)O)S2`, the GI50 with NCI/ADR-RES and in the assay on T47D was > 100 µM (inactive) throughout.
For the compound `COc1cc(CNc2nc3ccccc3nc2C(=O)O)cc(OC)c1OC`, the GI50 in the assay on NCI/ADR-RES and with T47D was > 100 µM (inactive) each time.
`Cn1c(-c2ccc(/N=N/Nc3ccc(-c4n[nH]c(=S)n4C)cc3)cc2)n[nH]c1=S`: the results for the GI50 in the assay with NCI/ADR-RES and with T47D were > 100 µM (inactive) and 1.94 µM (inactive), respectively.
As for `O=C(Cn1c2ccc(Br)cc2c2nc3ccccc3nc21)NC1CCCCC1`, the GI50 with NCI/ADR-RES is > 100 µM (inactive); in the assay with T47D, 60.4 µM (inactive).
The corresponding values for `COc1ccc(NC(=O)CC(=O)n2nc(C)c(/N=N/c3cccc(C)c3)c2C)cc1` are > 100 µM (inactive) and > 100 µM (inactive).
On the same counts, the results for `C=C(C)CCN(C(=O)OC(C)(C)C)c1cc(C(C)C)co1` are 24.2 µM (inactive) and 24.8 µM (inactive).
For `N#Cc1nc(CN2C(=O)c3ccccc3C2=O)oc1N`, the GI50 with NCI/ADR-RES and with T47D was > 100 µM (inactive) throughout.
Regarding `COC(=O)C1([C@@H]2C[C@@H](O)[C@]3(C)CC/C=C(\C)CCC[C@H](C)[C@H](O)[C@@H]2O3)CC1`, the GI50 in the assay with NCI/ADR-RES was 39.4 µM (inactive); in the assay with T47D, 46.6 µM (inactive).
On the same counts, the results for `O=c1[nH]nc(Cc2ccccc2)n1/N=C/c1cccs1` are > 100 µM (inactive) and > 100 µM (inactive).
On the same counts, the results for `Cc1cc(N(CCC#N)CCC#N)ccc1C(/N=N/c1ccc(C(=O)O)cc1)=N\NC(=O)c1ccccc1` are 66.8 µM (inactive) and 43.8 µM (inactive).
Take `Clc1cc(-c2ccccc2)nc2ccccc12`: the GI50 in the assay with NCI/ADR-RES was 33.6 µM (inactive); in the assay with T47D, 31.3 µM (inactive).
The corresponding values for `NS(=O)(=O)c1nnc(NS(=O)(=O)c2ccccc2C(=O)O)s1` are > 100 µM (inactive) and > 100 µM (inactive).
On the same counts, the results for `O=[N+]([O-])c1ccc(N/N=C/c2ccc(OCCCCCCCCCCCO)cc2)c([N+](=O)[O-])c1` are 2.73 µM (inactive) and 5.22 µM (inactive).
Regarding `N=C(N)NCCCC(NC(=O)c1cccc2c(=O)c3ccccc3[nH]c12)C(=O)O` (configuration not stated), the GI50 in the assay with NCI/ADR-RES was > 100 µM (inactive).
On to `COc1cccc2c1C(=O)c1c(O)c3c(c(O)c1C2=O)C[C@@](O)(C(C)=O)CC3OC1CC(OC2CC(N)C(O)C(C)O2)C(O)C(C)O1` (some centres not stated), for which the values for the GI50 in the assay with NCI/ADR-RES and in the assay on T47D were > 100 µM (inactive) and 37.9 µM (inactive), respectively.
The corresponding values for `O=Cc1cc2c(o1)C(=O)c1ccccc1C2=O` are 1.81 µM (inactive) and 1.72 µM (inactive).
For `O=C1Cc2c([nH]c3ccc(C(=O)O)cc23)-c2ccccc2N1`, the GI50 in the assay with NCI/ADR-RES and in the assay on T47D was > 100 µM (inactive) in each case.
